Assays:
gastric acid secretion = assay: Action on Gastric Acid Secretion (Shay Rat, pylorus ligation); format: in vivo, Sprague-Dawley strain male rats; conditions: intraduodenal immediately after pylorus ligation, 4 h gastric juice
Procedure: (§1) For the pharmocological examination of the compounds of the present invention, the following tests were carried out to confirm the effect of inhibiting gastric acid secretion and the protective effect of gastric mucosa. For the toxicity, the test compound was orally administered to six mice of one group to determine the toxicity (LD50) thereof.
1. Action on Gastric Acid Secretion (Shay Rat)
Sprague-Dawley strain male rats weighing 200-240 g were used after being starved for 24 hours (water was given ad libitum). Under ether anesthesia, the abdomen was cut and, after ligation of the pylorus part, then closed, and the rat was starved of both food and water. Four hours later the stomach was removed under ether anesthesia and the gastric juice was collected. The gastric juice collected was centrifuged at 3000 rpm for 10 minutes, the volume of the supernatant was measured, and the acidity was determined by titrating 1 ml of the gastric juice with 0.1 N sodium hydroxide solution to pH 7.0. Further, from the amount of gastric juice and the acidity, the acid output (μEg/4h) was calculated; the percentage of inhibition was determined from the following formula, and the percentage of inhibition versus dose (mg/kg) was then plotted on a semi-logarithmic graph to determine the ED50 value. Each test drug was suspended in physiological saline with a few drops of Tween 80 (available from Nakarai Chemicals Ltd.,) and administered into the duodenum at a proportion of 0.2 ml/100 g-body weight immediately after pylorus ligation. [formula]

[1] = Action on Hydrochloric Acid Plus Ethanol Induced Ulcer; format: in vivo, Sprague-Dawley strain male rats; conditions: rat, oral 30 minutes before HCl-ethanol
Procedure: 2. Action on Hydrochloric Acid Plus Ethanol Induced Ulcer
Sprague-Dawley strain male rats weighing 200-240 g were used after starving for 24 hours. To each rat, a 60% ethanolic solution containing 150 mM of hydrochloric acid was administered orally at a volume of 0.5 ml/100 g-body weight, and the stomach was removed under ether anesthesia 1 hour later. Into the stomach, 10 ml of a 2% formalin solution was injected, and further the stomach was then immersed in a 2% formalin solution for 15 minutes to fix the inner and outer wall of the stomach. The stomach was cut open along the greater curvature, and the length of the damage generated at the glandular portion of the stomach was measured, and the sum of the lengths of the damages of gastric mucosa per one rat was defined as the lesion index (mm), which was compared with a control group to calculate the percentage of inhibition according to the formula shown below, and then the percentage of inhibition versus dose (mg/kg) was plotted on a semi-logarithmic graph to determine the ED50 value. Each test drug was suspended in physiological saline a few drops of Tween 80 and administered orally 30 minutes before administration of the hydrochloric acid ethanolic solution. [formula]

Toxicity (LD50) in mouse = conditions: in vivo, oral, six mice of one group
Procedure: as §1

[2] = Anti-Duodenal Ulcer Action; format: in vivo, Sprague-Dawley-strain male rats; conditions: rat, indomethacin plus histamine 2HCl
Procedure: 6. Anti-Duodenal Ulcer Action
Sprague-Dawley-strain male rats weighing 200-220 g were starved for 24 hours, and indomethacin (suspended in saline with Tween 80) and histamine 2HCl (dissolved in 10% gelatin solution) were administered following the time schedule shown below. Then, under ether anesthesis, stomach and the duodenal part were removed and 2% formalin solution was injected thereinto. Further, they were immersed in 2% formalin solution for about 15 minutes, and then cut open along the greater curvature to the duodenal part, and the number and area (length in the case of linear ulcer) of the mucosa damages generated at the Corpus, Antrum and Duodenum respectively were measured under stereoscopic microscope (×10), and the sum of the area (mm^2) per one rat was defined as lesion index. The ED50 value was calculated as described before. [drawing 32]

[3] = Anti-Aspirin Ulcer Action; format: in vivo, Sprague-Dawley-strain male rats; conditions: rat, into the duodenum, aspirin 150 mg/kg oral, 5 hours
Procedure: 3. Anti-Aspirin Ulcer Action
Sprague-Dawley-strain male rats weighing about 220 g were starved for 24 hours, and with pylorus being ligated under ether anesthesia, the test drug was administered into the duodenum. After recovery from ether anesthesia, 150 mg/kg of aspirin (suspended in 1% CMC) was orally administered. Five hours later, the stomach was removed under ether anesthesia, 10 ml of 2% formalin solution was injected into the stomach, and the stomach was then immersed in a 2% formalin solution for about 15 minutes. The stomach was then cut open along the greater curvature and the length of the damage generated at the glandular portion of the stomach was measured under dissecting microscope (×10) and the sum of the lengths per one rat (mm) was defined as the lesion index. The ED50 value was calculated as described before.

Anti Stress Ulcer = format: in vivo, Sprague-Dawley-strain male rats; conditions: rat, oral 30 minutes before water immersion stress at 23° C., 5 hours; read-out: Action on anti-stress ulcer (ED50)
Procedure: Sprague-Dawley-strain male rats weighing about 240-260 g were starved for 24 hours, and, 30 minutes after oral administration of the test drug, the rat was placed in a stress cage and stress was loaded by immersing the rat into a water tank maintained at 23° C. to the xiphisternum of the chest. Five hours later, the stomach was removed under ether anesthesia, the same treatment as in the case of aspirin ulcer was applied, and the sum of the lengths (mm) of the mucosa damage generated at the glandular portion of the stomach was defined as the lesion index. The ED50 value was calculated as described before.

Toxicity (LD50) in rat = conditions: in vivo, oral
[4] = Anti-Indomethacin Ulcer Action; format: in vivo, Sprague-Dawley-strain male rats; conditions: rat, 30 minutes before indomethacin 30 mg/kg s.c., 5 hours
Procedure: 4. Anti-Indomethacin Ulcer Action
Sprague-Dawley-strain male rats weighing about 200-220 g were starved for 24 hours, and 30 mg/kg of indomethacin (suspended in 1% CMC) was administered subcutaneously. After five hours, the stomach was removed under ether anesthesia, and subsequently the same treatment as in the case of an aspirin ulcer was carried out and the sum of the length (mm) of the damage produced at the glandular portion of the stomach per one rat was defined as lesion index. The test drug was administered 30 minutes before administration of indomethacin. The ED50 value was calculated as described before.

Compound | ED50 (gastric acid secretion) | ED50 [1] | further results
CC(C)=CCOC(=O)C(C(N)=S)c1ccccn1 (stereo not drawn) [Example 18, Prenyl 2-thiocarbamoyl-2-(2-pyridyl)acetate] | 7.8 mg/kg | 4.5 mg/kg | 
CC(C)=CCC/C(C)=C/COC(=O)C(C(N)=S)c1ccccn1 (stereo not drawn) [Example 17, geranyl 2-thiocarbamoyl-2-(2-pyridyl)acetate] | 5.3 mg/kg | 2.8 mg/kg | LD50 (Toxicity (LD50) in mouse): > 2000 mg/kg; ED50 [2]: 1 mg/kg; ED50 [3]: 1 mg/kg; ED50 (Anti Stress Ulcer): 4.2 mg/kg; LD50 (Toxicity (LD50) in rat): > 2860 mg/kg
CNC(=S)C(C(=O)OC/C=C(\C)CCC=C(C)C)c1ccccn1 (stereo not drawn) [Example 12, Geranyl 2-methylthiocarbamoyl-2-(2-pyridyl)acetate] | 5 mg/kg | 1.4 mg/kg | ED50 [4]: 0.7 mg/kg; LD50 (Toxicity (LD50) in mouse): > 1300 mg/kg; ED50 [2]: 0.6 mg/kg; ED50 [3]: 0.8 mg/kg; ED50 (Anti Stress Ulcer): 5.3 mg/kg
CCOC(=O)C(C(=S)NC1CCCCC1)c1ccccn1 (stereo not drawn) [Example 4, Ethyl 2-cyclohexylthiocarbamoyl-2-(2-pyridyl)acetate] | 15.5 mg/kg |  | 
CNC(=S)C(C(=O)OCC=C(C)C)c1ccccn1 (stereo not drawn) [Example 9, Prenyl 2-methylthiocarbamoyl-2-(2-pyridyl)acetate] | 3.5 mg/kg | 1.1 mg/kg | 
CCCNC(=S)C(C(=O)OCC)c1ccccn1 (stereo not drawn) [Example 19, Ethyl 2-propylthiocarbamoyl-2-(2-pyridyl)acetate] | 3.8 mg/kg |  | 
CC(C)=CCC/C(C)=C/COC(=O)C(C(=S)Nc1ccccc1)c1ccccn1 (stereo not drawn) [Example 14, Geranyl 2-phenylthiocarbamoyl-2-(2-pyridyl)acetate] | 36 mg/kg | 3.7 mg/kg | 
CNC(=S)C(C(=O)OC/C=C(\C)CC/C=C(\C)CCC=C(C)C)c1ccccn1 (stereo not drawn) [Example 15, Farnesyl 2-methylthiocarbamoyl-2-(2-pyridyl)acetate] | 5.6 mg/kg | 0.3 mg/kg | 
CCOC(=O)C(C(=S)NCc1ccccn1)c1ccccn1 (stereo not drawn) [Example 24, Ethyl 2-(2-pyridyl)methylthiocarbamoyl-2(2-pyridyl)acetate] | 6.4 mg/kg |  | 
CCOC(=O)C(C(=S)Nc1ccccc1)c1ccccn1 (stereo not drawn) [Example 6, Ethyl 2-phenylthiocarbamoyl-2-(2-pyridyl)acetate] | 9.3 mg/kg | 3.4 mg/kg | LD50 (Toxicity (LD50) in mouse): > 1300 mg/kg
CCOC(=O)C(C(=S)NCCCO)c1ccccn1 (stereo not drawn) [Example 20, Ethyl 2-(3-hydroxypropyl)thiocarbamoyl-2(2-pyridyl)acetate] |  | 2.3 mg/kg | 
CNC(=S)C(C(=O)OCc1ccccc1)c1ccccn1 (stereo not drawn) [Example 8, Benzyl 2-methylthiocarbamoyl-2-(2-pyridyl)acetate] | 12.3 mg/kg |  | 
CCNC(=S)C(C(=O)OCC)c1ccccn1 (stereo not drawn) [Example 2, Ethyl 2-ethylthiocarbamoyl-2-(2-pyridyl)acetate] | 4 mg/kg | 6.8 mg/kg | 
CCOC(=O)C(C(=S)NC)c1ccccn1 (stereo not drawn) [Example 1, ethyl 2-methylthiocarbamoyl-2-(2-pyridyl)acetate] | 2.4 mg/kg |  | 
C=CCNC(=S)C(C(=O)OCC)c1ccccn1 (stereo not drawn) [Example 3, Ethyl 2-allylthiocarbamoyl-2-(2-pyridyl)acetate] | 3.8 mg/kg |  | 
C=CCNC(=S)C(C(=O)OCC=C(C)C)c1ccccn1 (stereo not drawn) [Example 10, Prenyl 2-allylthiocarbamoyl-2-(2-pyridyl)acetate] | 4.4 mg/kg | 7.7 mg/kg | 
